# Assays:
# Assay in all cases: Kinase profiling (radioactive filter binding)
# Format in all cases: biochemical
# Details in all cases: 1 uM compound
# RSK2 = RSK2 (Homo sapiens, UniProt P51812)
# Procedure: (§1) 3A5 and 5E4 were sent to the International Centre for Kinase Profiling at the MRC Protein Phosphorylation and Ubiquitylation Unit for profiling (as described in ref ([17])). Compounds were profiled against 140 kinases using a radioactive ([^33P]ATP) filter binding assay at a concentration of 1 μM. Results were obtained as inhibition of kinase activity and are listed in Supplementary Table 2.
# p38d MAPK = p38d MAPK (Homo sapiens, UniProt O15264)
# Procedure: as §1
# ULK2 = ULK2 (Homo sapiens, UniProt Q8IYT8)
# Procedure: as §1
# ERK2 = ERK2 (Homo sapiens, UniProt P28482)
# Procedure: as §1
# PKCγ = PKCγ (Homo sapiens, UniProt P05129)
# Procedure: as §1
# RSK1 = RSK1 (Homo sapiens, UniProt Q15418)
# Procedure: as §1
# EF2K = EF2K (Homo sapiens, UniProt O00418)
# Procedure: as §1
# SGK1 = SGK1 (Homo sapiens, UniProt O00141)
# Procedure: as §1
# MELK = MELK (Homo sapiens, UniProt Q14680)
# Chain of MELK (Q14680 whole entry): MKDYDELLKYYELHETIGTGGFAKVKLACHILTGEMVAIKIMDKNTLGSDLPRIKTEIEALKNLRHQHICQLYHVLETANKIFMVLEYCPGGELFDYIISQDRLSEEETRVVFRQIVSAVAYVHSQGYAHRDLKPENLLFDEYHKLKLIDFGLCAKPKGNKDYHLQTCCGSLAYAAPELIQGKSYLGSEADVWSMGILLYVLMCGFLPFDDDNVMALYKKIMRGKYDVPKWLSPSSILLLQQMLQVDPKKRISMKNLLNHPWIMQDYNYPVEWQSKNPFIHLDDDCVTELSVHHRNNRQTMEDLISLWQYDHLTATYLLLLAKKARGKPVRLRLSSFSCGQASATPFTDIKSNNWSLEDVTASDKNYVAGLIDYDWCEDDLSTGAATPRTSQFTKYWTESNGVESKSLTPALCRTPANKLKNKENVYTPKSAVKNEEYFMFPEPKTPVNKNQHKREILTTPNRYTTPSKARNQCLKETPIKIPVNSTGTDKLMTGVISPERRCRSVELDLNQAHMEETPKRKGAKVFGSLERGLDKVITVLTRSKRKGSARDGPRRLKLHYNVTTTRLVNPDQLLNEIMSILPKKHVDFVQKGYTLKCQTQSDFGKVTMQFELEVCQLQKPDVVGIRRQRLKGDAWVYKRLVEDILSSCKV
# Procedure: as §1
# PAK2 = PAK2 (Homo sapiens, UniProt Q13177)
# Procedure: as §1
# TAO1 = TAO1 (Homo sapiens, UniProt Q7L7X3)
# Procedure: as §1
# ABL = ABL (Homo sapiens, UniProt P00519)
# Procedure: as §1
# IRAK1 = IRAK1 (Homo sapiens, UniProt P51617)
# Procedure: as §1
# ERK8 = ERK8 (Homo sapiens, UniProt Q8TD08)
# Procedure: as §1
# EPH-B4 = EPH-B4 (Homo sapiens, UniProt P54760)
# Chain of EPH-B4 (P54760 16-987): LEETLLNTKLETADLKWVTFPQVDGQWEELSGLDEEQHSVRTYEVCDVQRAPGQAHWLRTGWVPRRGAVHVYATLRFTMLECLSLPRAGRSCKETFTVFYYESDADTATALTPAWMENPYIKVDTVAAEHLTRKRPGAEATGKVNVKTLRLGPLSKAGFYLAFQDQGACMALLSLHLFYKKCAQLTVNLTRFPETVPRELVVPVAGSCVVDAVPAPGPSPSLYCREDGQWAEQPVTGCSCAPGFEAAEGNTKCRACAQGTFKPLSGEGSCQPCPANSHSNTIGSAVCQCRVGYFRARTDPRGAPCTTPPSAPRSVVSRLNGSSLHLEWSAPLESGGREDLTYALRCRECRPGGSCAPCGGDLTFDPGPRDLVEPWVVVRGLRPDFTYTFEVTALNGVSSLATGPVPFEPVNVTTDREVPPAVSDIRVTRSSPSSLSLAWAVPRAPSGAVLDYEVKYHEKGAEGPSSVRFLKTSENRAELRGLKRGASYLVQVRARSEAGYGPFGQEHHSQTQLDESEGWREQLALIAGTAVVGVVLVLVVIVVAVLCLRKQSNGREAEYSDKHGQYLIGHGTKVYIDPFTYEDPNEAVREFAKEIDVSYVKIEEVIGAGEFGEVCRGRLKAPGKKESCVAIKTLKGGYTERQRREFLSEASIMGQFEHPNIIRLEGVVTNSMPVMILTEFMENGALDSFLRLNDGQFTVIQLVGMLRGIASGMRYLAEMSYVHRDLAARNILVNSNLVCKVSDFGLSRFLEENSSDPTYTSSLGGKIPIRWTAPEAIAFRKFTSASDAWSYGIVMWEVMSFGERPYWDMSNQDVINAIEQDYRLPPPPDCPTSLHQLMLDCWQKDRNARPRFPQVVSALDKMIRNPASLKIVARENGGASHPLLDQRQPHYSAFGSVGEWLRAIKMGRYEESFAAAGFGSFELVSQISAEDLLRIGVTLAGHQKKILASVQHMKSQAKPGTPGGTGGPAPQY
# Procedure: as §1
# PKA = PKA (Homo sapiens, UniProt P17612)
# Procedure: as §1
# Aurora B = Aurora B (Homo sapiens, UniProt Q96GD4)
# Chain of Aurora B (Q96GD4 whole entry): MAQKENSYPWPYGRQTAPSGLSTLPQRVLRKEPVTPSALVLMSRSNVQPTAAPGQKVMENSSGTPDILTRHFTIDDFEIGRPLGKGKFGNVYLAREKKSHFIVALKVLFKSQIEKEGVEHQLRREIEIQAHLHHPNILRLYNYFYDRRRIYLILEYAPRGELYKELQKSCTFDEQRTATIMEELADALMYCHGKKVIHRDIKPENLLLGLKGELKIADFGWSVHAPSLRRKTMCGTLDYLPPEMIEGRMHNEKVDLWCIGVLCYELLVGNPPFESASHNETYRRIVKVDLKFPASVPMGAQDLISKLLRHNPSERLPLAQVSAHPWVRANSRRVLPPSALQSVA
# Procedure: as §1
# TLK1 = TLK1 (Homo sapiens, UniProt Q9UKI8)
# Procedure: as §1
# SRPK1 = SRPK1 (Homo sapiens, UniProt Q96SB4)
# Procedure: as §1
# MAPKAP-K2 = MAPKAP-K2 (Homo sapiens, UniProt P49137)
# Procedure: as §1
# MEKK1 = MEKK1 (Homo sapiens, UniProt Q13233)
# Procedure: as §1
# TIE2 = TIE2 (Homo sapiens, UniProt Q02763)
# Procedure: as §1
# MARK4 = MARK4 (Homo sapiens, UniProt Q96L34)
# Procedure: as §1
# MARK2 = MARK2 (Homo sapiens, UniProt Q7KZI7)
# Procedure: as §1
# CHK2 = CHK2 (Homo sapiens, UniProt O96017)
# Procedure: as §1
# STK33 = STK33 (Homo sapiens, UniProt Q9BYT3)
# Chain of STK33 (Q9BYT3 whole entry): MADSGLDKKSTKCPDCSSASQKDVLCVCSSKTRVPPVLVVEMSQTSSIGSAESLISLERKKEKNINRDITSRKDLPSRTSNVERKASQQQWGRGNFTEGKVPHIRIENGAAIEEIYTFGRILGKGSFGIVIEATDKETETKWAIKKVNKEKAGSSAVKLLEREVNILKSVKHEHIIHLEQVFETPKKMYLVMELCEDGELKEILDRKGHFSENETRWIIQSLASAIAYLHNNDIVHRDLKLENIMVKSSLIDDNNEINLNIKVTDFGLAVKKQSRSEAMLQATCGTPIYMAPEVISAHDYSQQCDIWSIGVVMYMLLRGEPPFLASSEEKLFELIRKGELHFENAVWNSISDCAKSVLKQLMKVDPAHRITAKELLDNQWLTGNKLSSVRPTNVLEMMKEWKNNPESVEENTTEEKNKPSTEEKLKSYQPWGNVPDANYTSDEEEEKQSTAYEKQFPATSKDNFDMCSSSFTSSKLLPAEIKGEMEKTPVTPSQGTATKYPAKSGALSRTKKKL
# Procedure: as §1
# ROCK 2 = ROCK 2 (Rattus norvegicus, UniProt Q62868)
# Procedure: as §1
# PINK = PINK (Tribolium castaneum, UniProt D6WMX4)
# Chain of PINK (D6WMX4 whole entry): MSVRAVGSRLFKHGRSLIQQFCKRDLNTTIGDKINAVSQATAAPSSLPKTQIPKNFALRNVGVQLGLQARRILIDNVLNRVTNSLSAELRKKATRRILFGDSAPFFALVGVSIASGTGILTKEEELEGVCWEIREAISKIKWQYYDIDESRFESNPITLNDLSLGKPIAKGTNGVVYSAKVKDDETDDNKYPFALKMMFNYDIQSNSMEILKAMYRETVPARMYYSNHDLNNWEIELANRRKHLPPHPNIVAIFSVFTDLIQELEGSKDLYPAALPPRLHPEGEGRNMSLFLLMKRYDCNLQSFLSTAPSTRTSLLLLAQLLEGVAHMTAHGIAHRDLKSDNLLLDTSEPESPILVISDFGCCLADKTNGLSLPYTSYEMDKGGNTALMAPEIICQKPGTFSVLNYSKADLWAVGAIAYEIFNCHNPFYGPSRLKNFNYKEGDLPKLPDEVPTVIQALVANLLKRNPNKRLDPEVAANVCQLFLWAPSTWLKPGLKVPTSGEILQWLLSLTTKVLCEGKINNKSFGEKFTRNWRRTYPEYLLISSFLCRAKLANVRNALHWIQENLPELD
# Procedure: as §1
# Aurora A = Aurora A (Homo sapiens, UniProt O14965)
# Procedure: as §1
# ERK5 = ERK5 (Homo sapiens, UniProt Q13164)
# Procedure: as §1
# ERK1 = ERK1 (Homo sapiens, UniProt P27361)
# Procedure: as §1
# MKK2 = MKK2 (Homo sapiens, UniProt P36507)
# Procedure: as §1
# MINK1 = MINK1 (Homo sapiens, UniProt Q8N4C8)
# Procedure: as §1
# CK1δ = CK1δ (Homo sapiens, UniProt P48730)
# Procedure: as §1
# SmMLCK = SmMLCK (Homo sapiens, UniProt Q15746)
# Procedure: as §1
# TSSK1 = TSSK1 (Homo sapiens, UniProt Q9BXA7)
# Procedure: as §1
# SIK3 = SIK3 (Homo sapiens, UniProt Q9Y2K2)
# Chain of SIK3 (Q9Y2K2 whole entry): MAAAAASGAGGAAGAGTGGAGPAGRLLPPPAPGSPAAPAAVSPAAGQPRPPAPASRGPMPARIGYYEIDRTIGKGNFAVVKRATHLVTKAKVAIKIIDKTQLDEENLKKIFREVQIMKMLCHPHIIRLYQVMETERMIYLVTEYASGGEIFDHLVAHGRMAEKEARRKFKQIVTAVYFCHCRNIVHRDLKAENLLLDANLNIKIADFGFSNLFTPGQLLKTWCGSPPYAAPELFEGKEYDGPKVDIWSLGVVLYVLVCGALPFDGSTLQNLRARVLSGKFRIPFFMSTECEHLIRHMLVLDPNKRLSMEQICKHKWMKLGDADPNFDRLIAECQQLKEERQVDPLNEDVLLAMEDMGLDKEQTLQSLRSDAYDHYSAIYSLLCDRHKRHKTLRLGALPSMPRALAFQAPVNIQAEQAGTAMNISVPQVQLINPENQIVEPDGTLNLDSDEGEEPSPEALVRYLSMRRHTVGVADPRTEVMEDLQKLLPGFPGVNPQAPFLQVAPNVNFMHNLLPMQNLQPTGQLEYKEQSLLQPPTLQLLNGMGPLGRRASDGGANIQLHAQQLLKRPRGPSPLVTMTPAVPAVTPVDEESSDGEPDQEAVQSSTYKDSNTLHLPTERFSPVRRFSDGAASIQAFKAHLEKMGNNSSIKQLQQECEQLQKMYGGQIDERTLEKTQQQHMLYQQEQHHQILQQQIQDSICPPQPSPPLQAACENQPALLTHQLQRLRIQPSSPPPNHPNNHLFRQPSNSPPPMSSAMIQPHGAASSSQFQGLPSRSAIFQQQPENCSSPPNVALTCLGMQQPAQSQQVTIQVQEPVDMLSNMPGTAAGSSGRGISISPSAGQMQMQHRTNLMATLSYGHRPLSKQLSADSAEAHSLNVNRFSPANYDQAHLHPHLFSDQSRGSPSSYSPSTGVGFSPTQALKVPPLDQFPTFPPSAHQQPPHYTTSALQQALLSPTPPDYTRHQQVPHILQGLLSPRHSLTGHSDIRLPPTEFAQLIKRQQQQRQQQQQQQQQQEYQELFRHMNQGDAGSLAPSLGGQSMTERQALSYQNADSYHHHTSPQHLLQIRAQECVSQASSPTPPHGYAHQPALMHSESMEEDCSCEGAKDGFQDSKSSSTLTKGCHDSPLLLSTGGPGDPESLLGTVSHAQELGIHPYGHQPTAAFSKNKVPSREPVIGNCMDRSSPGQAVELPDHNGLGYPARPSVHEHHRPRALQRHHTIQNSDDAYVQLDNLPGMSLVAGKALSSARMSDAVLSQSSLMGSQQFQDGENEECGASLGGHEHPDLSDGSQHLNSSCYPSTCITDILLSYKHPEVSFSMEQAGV
# Procedure: as §1
# S6K1 = S6K1 (Homo sapiens, UniProt P23443)
# Procedure: as §1
# MSK1 = MSK1 (Homo sapiens, UniProt O75582)
# Procedure: as §1
# PAK5 = PAK5 (Homo sapiens, UniProt Q9P286)
# Procedure: as §1
# EPH-A2 = EPH-A2 (Homo sapiens, UniProt P29317)
# Procedure: as §1
# PKCa = PKCa (Homo sapiens, UniProt P17252)
# Procedure: as §1
# VEG-FR = VEG-FR (Homo sapiens, UniProt P17948)
# Procedure: as §1
compound,measurement,setting,value
"Cc1nc2ccc3sc(NC(=O)c4ccc5ncsc5c4)nc3c2s1 [3A5, N-(2-methyl[1,3]thiazolo[5,4-e][1,3]benzothiazol-7-yl)-1,3-benzothiazole-6-carboxamide]",RSK2 activity in kinase profiling,RSK2,120
same,p38d MAPK activity in kinase profiling,p38d MAPK,105
same,ULK2 activity in kinase profiling,ULK2,92
same,ERK2 activity in kinase profiling,ERK2,109
same,PKCγ activity in kinase profiling,PKCγ,102
same,RSK1 activity in kinase profiling,RSK1,83
same,EF2K activity in kinase profiling,EF2K,71
same,SGK1 activity in kinase profiling,SGK1,85
same,MELK activity in kinase profiling,MELK,69
same,PAK2 activity in kinase profiling,PAK2,92
same,TAO1 activity in kinase profiling,TAO1,94
same,ABL activity in kinase profiling,ABL,102
same,IRAK1 activity in kinase profiling,IRAK1,88
same,ERK8 activity in kinase profiling,ERK8,82
same,EPH-B4 activity in kinase profiling,EPH-B4,103
same,PKA activity in kinase profiling,PKA,98
same,Aurora B activity in kinase profiling,Aurora B,69
same,TLK1 activity in kinase profiling,TLK1,99
same,SRPK1 activity in kinase profiling,SRPK1,56
same,MAPKAP-K2 activity in kinase profiling,MAPKAP-K2,107
same,MEKK1 activity in kinase profiling,MEKK1,79
same,TIE2 activity in kinase profiling,TIE2,98
same,MARK4 activity in kinase profiling,MARK4,80
same,MARK2 activity in kinase profiling,MARK2,87
same,CHK2 activity in kinase profiling,CHK2,77
same,STK33 activity in kinase profiling,STK33,88
same,ROCK 2 activity in kinase profiling,ROCK 2,68
same,PINK activity in kinase profiling,PINK,115
same,Aurora A activity in kinase profiling,Aurora A,127
same,ERK5 activity in kinase profiling,ERK5,39
same,ERK1 activity in kinase profiling,ERK1,102
same,MKK2 activity in kinase profiling,MKK2,115
same,MINK1 activity in kinase profiling,MINK1,89
same,CK1δ activity in kinase profiling,CK1δ,34
same,SmMLCK activity in kinase profiling,SmMLCK,50
same,TSSK1 activity in kinase profiling,TSSK1,81
same,SIK3 activity in kinase profiling,SIK3,84
same,S6K1 activity in kinase profiling,S6K1,72
same,MSK1 activity in kinase profiling,MSK1,86
same,PAK5 activity in kinase profiling,PAK5,75
same,EPH-A2 activity in kinase profiling,EPH-A2,134
same,PKCa activity in kinase profiling,PKCa,100
same,VEG-FR activity in kinase profiling,VEG-FR,108
"CSc1nc2ccc3nc(NC(=O)c4ccco4)sc3c2s1 [5E4, N-[7-(methylsulfanyl)[1,3]thiazolo[4,5-g][1,3]benzothiazol-2-yl]-2-furamide]",RSK2 activity in kinase profiling,RSK2,100
same,p38d MAPK activity in kinase profiling,p38d MAPK,103
same,ULK2 activity in kinase profiling,ULK2,81
same,ERK2 activity in kinase profiling,ERK2,112
same,PKCγ activity in kinase profiling,PKCγ,100
same,RSK1 activity in kinase profiling,RSK1,92
same,EF2K activity in kinase profiling,EF2K,79
same,SGK1 activity in kinase profiling,SGK1,88
same,MELK activity in kinase profiling,MELK,71
same,PAK2 activity in kinase profiling,PAK2,97
same,TAO1 activity in kinase profiling,TAO1,99
same,ABL activity in kinase profiling,ABL,61
same,IRAK1 activity in kinase profiling,IRAK1,87
same,ERK8 activity in kinase profiling,ERK8,83
same,EPH-B4 activity in kinase profiling,EPH-B4,84
same,PKA activity in kinase profiling,PKA,97
same,Aurora B activity in kinase profiling,Aurora B,64
same,TLK1 activity in kinase profiling,TLK1,92
same,SRPK1 activity in kinase profiling,SRPK1,81
same,MAPKAP-K2 activity in kinase profiling,MAPKAP-K2,92
same,MEKK1 activity in kinase profiling,MEKK1,108
same,TIE2 activity in kinase profiling,TIE2,89
same,MARK4 activity in kinase profiling,MARK4,87
same,MARK2 activity in kinase profiling,MARK2,90
same,CHK2 activity in kinase profiling,CHK2,88
same,STK33 activity in kinase profiling,STK33,110
same,ROCK 2 activity in kinase profiling,ROCK 2,96
same,PINK activity in kinase profiling,PINK,118
same,Aurora A activity in kinase profiling,Aurora A,107
same,ERK5 activity in kinase profiling,ERK5,39
same,ERK1 activity in kinase profiling,ERK1,104
same,MKK2 activity in kinase profiling,MKK2,121
same,MINK1 activity in kinase profiling,MINK1,8
same,CK1δ activity in kinase profiling,CK1δ,94
same,SmMLCK activity in kinase profiling,SmMLCK,43
same,TSSK1 activity in kinase profiling,TSSK1,81
same,SIK3 activity in kinase profiling,SIK3,79
same,S6K1 activity in kinase profiling,S6K1,80
same,MSK1 activity in kinase profiling,MSK1,109
same,PAK5 activity in kinase profiling,PAK5,81
same,EPH-A2 activity in kinase profiling,EPH-A2,162
same,PKCa activity in kinase profiling,PKCa,81
same,VEG-FR activity in kinase profiling,VEG-FR,53

# From paper PMC4730229, “Benzobisthiazoles Represent a Novel Scaffold for Kinase Inhibitors of CLK Family Members” (Biochemistry, 2015)
